The subject of series [1] is secretion of acidic gastric juice in dogs provided with a Heidenhain pouch and whose gastric secretion is stimulated with histamine. The experiment in a line: Inhibition of histamine-stimulated gastric acid secretion in Heidenhain pouch dogs, intravenous injection. Conditions: for biological activity (inhibition of the secretion of acidic gastric juice), in words: dog, histamine-stimulated gastric secretion; for biological potency (amount causing a 50-70% inhibition of acid secretion): intravenous injection, dog with Heidenhain pouch, secretion stimulated to 60-80% of maximum by histamine infusion, expressed as a range of doses; for biological activity, inhibition of gastric secretion: single determination, single intravenous injection. Format: in vivo, dog. Here is the method:
This test is used to determine the biological potency of the products, which is defined as the amount of the products which, on administration by intravenous injection to a dog provided with a Heidenhain pouch and whose secretion of gastric acid is stimulated to 60-80- % of the maximum level of secretion by an infusion of histamine, causes a 50-70% inhibition of that acid secretion. Some variation in the biological potency of a particular sample is found if it is measured in different dogs or on different occasions and so the result is best expressed as a range of doses. The physiological effect of inhibiting the secretion of acidic gastric juice is of value in the treatment of duodenal ulcers, and under the test conditions, no serious toxic effects were observed. The polypeptides of the invention also show ulcer healing properties in a standard test.
In the case of each process involving the use of a chromatography column, the eluate was collected in fractions consisting of a defined number of drops using an Ultrorac LKB 7,000 fraction collector (LKB Instruments Ltd., Croydon, Surrey, U.K.) and these fractions assayed for peptide material by measuring the U.V. absorption at 280 mμ. The material was then collected in fractions and the material assayed for biological activity as follows:
Dogs were prepared with separated denervated fundic pouches, and a subcutaneous infusion of histamine was used to stimulate gastric secretion to approximately 60-80% of the maximal rate [usually an infusion of a solution of 600 μg. of histamine (expressed as base) in 0.48 ml. per hour is adequate]. A known amount of test material was dissolved in isotonic saline and, when the dog was secreting gastric juice at a steady rate, a single intravenous injection of this material was administered.
The biological potency may be determined from the results obtained at several different doses.

Series [2] is described as follows: Water solubility of the isolated lyophilized polypeptide. Format: physicochemical. Conditions: lyophilized white acidic polypeptide.

Take “material in fractions 38-52: peptide cleaved from β-urogastrone by AM protease; ratios Glu 1, Leu 1, Lys 1, Trp 2, Arg 1; N-terminal lysine (KWWELR; Epidermal growth factor; UniProt P01133 1018-1023, looked up, fragment)”: the “biological activity (inhibition of the secretion of acidic gastric juice), in words” value in series [1] was “biologically inactive”.

In the case of “3: polypeptide of Example 2 in which the cystine residues had been reduced to cysteine residues (NSDSECPLSHDGYCLHDGVCMYIEALDKYACNCVVGYIGERCQYRD; Epidermal growth factor cystines reduced; UniProt P01133 971-1016, looked up, fragment) [Example 3]”, the “biological activity (inhibition of the secretion of acidic gastric juice), in words” value in series [1] is “potent inhibitors”.

As for “Example 2: 46-residue single-chain polypeptide with three internal disulphide bonds, from the 47-residue polypeptide by carboxypeptidase A cleavage of C-terminal leucine (NSDSECPLSHDGYCLHDGVCMYIEALDKYACNCVVGYIGERCQYRD; Epidermal growth factor; UniProt P01133 971-1016, looked up, fragment)”, in series [1], the “biological activity (inhibition of the secretion of acidic gastric juice), in words” value is listed as “biologically active” and the “biological potency (amount causing a 50-70% inhibition of acid secretion)” value was in the range of 0.2 to 1 μg./kg. In series [1] (listed as polypeptide of the invention), the “biological activity (inhibition of the secretion of acidic gastric juice), in words” value is “potent inhibitors”. The “biological activity, inhibition of gastric secretion” value in series [1] (dose equivalent to 0.6 μg./kg. of starting material) is 42%. For the same substance, in series [2], the solubility in water result was “water soluble”.

Take “polypeptide having 47 amino-acid residues: 47-residue single-chain polypeptide with three disulphide bonds obtained by incubating β-urogastrone with AM protease (NSDSECPLSHDGYCLHDGVCMYIEALDKYACNCVVGYIGERCQYRDL; Epidermal growth factor; UniProt P01133 971-1017, looked up, fragment)”: in series [1], the “biological activity (inhibition of the secretion of acidic gastric juice), in words” value was “biologically active” and the “biological potency (amount causing a 50-70% inhibition of acid secretion)” value was in the range of 0.2 to 1 μg./kg. Moreover, in series [1] (dose equivalent to 0.7 μg./kg. of starting material), the “biological activity, inhibition of gastric secretion” value worked out at 30%. In addition, the solubility in water result in series [2] is “water soluble”.

(Values after patent publication US4035485A, “Polypeptides” (Imperial Chemical Industries Limited, priority 1974, dated 1977).)
